The source of these data is patent US20240165112A1, “THERAPY FOR THE TREATMENT OF CANCER” (Bristol-Myers Squibb Company, priority 2022, published 2024).

Structures are written as SMILES.

Test [1] deals with LXFE690 organoid, NSCLC (squamous subtype). Kind of test: 3D clonogenic assay in patient derived organoids. Type of test: cell-based, human. Conditions: 8 to 13 days.
Test [2] deals with LXFA677 organoid, NSCLC (adenocarcinoma subtype). Kind of test: 3D clonogenic assay in patient derived organoids. Type of test: cell-based, human. Conditions: 8 to 13 days.
Test [3] has as its system CXF1256 organoid, colon cancer. Kind of test: 3D clonogenic assay in patient derived organoids. Type of test: cell-based, human. Conditions: 8 to 13 days.
The test system of test [4] is CXF2061 organoid, colon cancer. Kind of test: 3D clonogenic assay in patient derived organoids. Type of test: cell-based, human. Conditions: 8 to 13 days.
Test [5] concerns MAXFTN2990 organoid, breast cancer (triple negative). Kind of test: 3D clonogenic assay in patient derived organoids. Type of test: cell-based, human. Conditions: 8 to 13 days.
Test [6] concerns CXF2129 organoid, colon cancer. Kind of test: 3D clonogenic assay in patient derived organoids. Conditions: 8 to 13 days. Type of test: cell-based, human.
Test [7] deals with CCL2 secretion by primary human macrophages. Kind of test: CCL2 secretion in primary human macrophages (ELISA). In kind it is cell-based. Conditions: normalized to DMSO. On the procedure:
FIG. 11 illustrates the effect of Compound 1 Treatment on CCL2 Secretion in Primary Human Macrophages. Primary human monocytes were differentiated into macrophages and treated with varying doses of DMSO or Compound 1. The CCL2 levels were measured in the cell supernatant by ELISA 24 hours after drug treatment. The CCL2 secretion levels were normalized to the equivalent DMSO concentration. Data are plotted as the mean and standard deviation of 3 donors and representative of 2 independent experiments. *P<0.05; ** P<0.01, ***P<0.001; ****P<0.0001 by student's t-test. Abbreviations: CCL2, C—C motif chemokine ligand 2; DMSO, dimethyl sulfoxide; ELISA, enzyme-linked immunosorbent assay.
Peripheral blood mononuclear cells (PBMCs) were isolated from human blood using aseptic conditions. CD14+ monocytes were enriched from PBMC using Miltenyi Biotech kit (using CD14 microbeads). Fresh CD14+ monocytes were differentiated to macrophages using complete RPMI1640 medium with M-CSF recombinant human protein at the final concentration of 50 ng/mL. At Day 3-4, media containing M-CSF was added on monocytes/macrophages and incubated for 6-7 days in 5% CO2 incubator at 37° C. 10 mL 10 mM EDTA or Detachin was added to the culture dish containing macrophages, and let sit for 20-30 minutes, or until cells dissociate from the dish at room temperature. […]
(In an ELISA, binding on a coated surface is turned into a signal by an enzyme label.)

As to `C[C@@H]1CC[C@@H](Nc2nc(NC(C)(C)C)ncc2C(N)=O)C[C@H]1O` [Compound 1, 2-(tert-butylamino)-4-((1R,3R,4R)-3-hydroxy-4-methylcyclohexylamino)-pyrimidine-5-carboxamide], the “% Reduction in Colony Formation with Compound 1 compared with DMSO, Mean” value in test [1] (Compound 1, 5 μM) turned out to be 73%; in test [1] (Compound 1, 20 μM) it was 79%; in test [2] (Compound 1, 5 μM), 27%; in test [2] (Compound 1, 20 μM), 32%; in test [3] (Compound 1, 5 μM), 90%; in test [3] (Compound 1, 20 μM), 92%. Besides, the “% Reduction in Colony Formation with Compound 1 compared with DMSO, Mean” value in test [4] (Compound 1, 5 μM) is given as 8%; in test [4] (Compound 1, 20 μM), 9%; in test [5] (Compound 1, 5 μM) it was −8%; in test [5] (Compound 1, 20 μM), 34%; in test [6] (Compound 1, 5 μM), 56%; in test [6] (Compound 1, 20 μM), 49%. In addition, the “reduction in CCL2” value in test [7] (7.4 μM Compound 1, supernatant) is 36%; in test [7] (20 μM Compound 1, supernatant), 43%.
